Our source for the EC50 and solubility values is patent US8722849B2, “Polypeptides” (Novo Nordisk A/S, priority 2011, dated 2014).

Molecules are shown by their SMILES. Like-named read-outs stand apart in the source and are kept apart here. Starred links: 1 amine or outer side, 2 acyl side, 3 side chain; linkers in the order of their positions; H or OH if unused. Positions of bridges follow the written chain, without caps; N, C: chain ends. Residues, ends and D or L forms follow the SMILES beside them. *: point of attachment. C20 diacid = O=C(O)CCCCCCCCCCCCCCCCCCC(=O)*; C18 diacid = O=C(O)CCCCCCCCCCCCCCCCC(=O)*; γGlu = O=C(O)[C@H](CCC(=O)[*:2])N[*:1]

The target in series [1] is T1, human calcitonin receptor (Homo sapiens, UniProt P30988).
T1 construct: expressed in transfected cells; host or cells: BHK570
T1 sequence (P30988 25-474): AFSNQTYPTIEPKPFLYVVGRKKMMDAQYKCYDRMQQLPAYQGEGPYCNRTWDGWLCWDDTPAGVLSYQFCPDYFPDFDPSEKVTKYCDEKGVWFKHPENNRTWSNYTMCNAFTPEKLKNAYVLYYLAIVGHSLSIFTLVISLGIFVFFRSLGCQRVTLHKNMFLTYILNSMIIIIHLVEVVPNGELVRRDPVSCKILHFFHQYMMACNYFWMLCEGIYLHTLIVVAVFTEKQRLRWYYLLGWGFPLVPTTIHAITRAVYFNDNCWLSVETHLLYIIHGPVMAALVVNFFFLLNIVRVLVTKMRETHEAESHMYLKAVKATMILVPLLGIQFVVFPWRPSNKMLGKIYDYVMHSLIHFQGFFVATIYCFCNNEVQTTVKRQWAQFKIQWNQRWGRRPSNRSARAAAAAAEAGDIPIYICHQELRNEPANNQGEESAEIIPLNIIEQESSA
Nature of the series: Assay (II)a functional CRE-luciferase assay, human calcitonin receptor. It is filed as cell-based. To be noted: Table 7; human calcitonin (CTa) receptor.

The target in series [2] is T2, rat amylin 3(a) receptor (rat calcitonin(a) receptor + rat RAMP3) (Rattus norvegicus, UniProt P32214+Q9JJ73).
T2 construct: expressed in transfected cells; host or cells: BHK tk'ts 13
T2 sequence (P32214 25-479 isoform P32214-2 limits assumed): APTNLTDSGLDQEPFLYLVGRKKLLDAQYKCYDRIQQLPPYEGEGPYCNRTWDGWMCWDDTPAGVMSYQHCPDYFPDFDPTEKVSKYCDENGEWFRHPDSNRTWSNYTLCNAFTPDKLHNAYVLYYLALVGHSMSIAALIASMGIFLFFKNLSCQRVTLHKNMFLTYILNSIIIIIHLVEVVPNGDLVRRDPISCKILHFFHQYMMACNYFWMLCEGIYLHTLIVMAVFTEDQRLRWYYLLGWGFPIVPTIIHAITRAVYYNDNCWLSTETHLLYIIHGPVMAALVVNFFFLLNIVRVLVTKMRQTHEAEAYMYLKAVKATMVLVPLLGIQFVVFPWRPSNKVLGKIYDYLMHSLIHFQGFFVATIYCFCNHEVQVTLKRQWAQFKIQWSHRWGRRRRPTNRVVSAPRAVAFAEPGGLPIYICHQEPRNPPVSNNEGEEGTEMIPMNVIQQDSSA
T2 sequence (Q9JJ73 23-147 partner): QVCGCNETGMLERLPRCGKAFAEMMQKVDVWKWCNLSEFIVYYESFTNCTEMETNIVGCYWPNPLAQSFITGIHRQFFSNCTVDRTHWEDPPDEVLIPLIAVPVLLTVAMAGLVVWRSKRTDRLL
Nature of the series: Assay (II)b functional cAMP FlashPlate assay, rat amylin receptor. It counts as cell-based. Particulars: Table 11. The gist of the method:
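BHK tk'ts 13 cells transiently transfected with rat calcitonin(a) receptor, alone or with rat RAMP3 (amylin 3(a)), were stimulated 24 hours later with sample for 30 min in buffer containing IBMX. cAMP measured by competitive radioactive FlashPlate assay, scintillation read after 3 h detection incubation.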

Series [3] in a line: Assay (IV) determination of solubility. It is filed as physicochemical. The gist of the method: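 Polypeptide in water (~500 nmol/ml stock) was mixed 1:1 with 100 mM buffers from pH 3.0 to 8.0 (glycylglycine pH 3.0–5.0; bistrispropane pH 6.0–8.0). After 18 hours at room temperature, samples were centrifuged and the polypeptide remaining in solution was quantified by HPLC.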

For series [4], the target named is T3, human amylin receptor (amylin 3(a) receptor: human calcitonin receptor + RAMP-3) (Homo sapiens, UniProt O60896+P30988).
T3 construct: expressed in transfected cells; host or cells: BHK570
T3 sequence (P30988 25-474): T1 sequence (P30988 25-474)
T3 sequence (O60896 24-148 partner): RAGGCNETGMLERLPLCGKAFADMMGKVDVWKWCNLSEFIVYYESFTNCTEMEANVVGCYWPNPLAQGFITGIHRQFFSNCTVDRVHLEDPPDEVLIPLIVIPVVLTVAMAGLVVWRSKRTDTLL
Nature of the series: Assay (II)a functional CRE-luciferase assay, human amylin receptor. It counts as cell-based. Particulars: Table 2; BHK amylin 3(a)-receptor/CRE-luc cells.

The mark [5] stands for this setting: bistrispropane buffer, pH 6, pH 6.0, read-out: Solubility pH 6.0.
[6] abbreviates: bistrispropane buffer, pH 6.5, pH 6.5, read-out: Solubility pH 6.5.
Where [7] appears, read: bistrispropane buffer, pH 7, pH 7.0, 18 hours at room temperature, Table 3, read-out: Solubility pH 7.0.
The mark [8] stands for this setting: bistrispropane buffer, pH 7, pH 7.0, read-out: Solubility pH 7.0.
Setting [9] is: bistrispropane buffer, pH 7.5, pH 7.5, read-out: Solubility pH 7.5.
Setting [10] is: bistrispropane buffer, pH 8, pH 8.0, read-out: Solubility pH 8.0.
[11] abbreviates: glycylglycine buffer, pH 3, pH 3.0, read-out: Solubility pH 3.0.
The mark [12] stands for this setting: glycylglycine buffer, pH 4, pH 4.0, 18 hours at room temperature, Table 2, read-out: Solubility pH 4.0.
Where [13] appears, read: glycylglycine buffer, pH 4, pH 4.0, read-out: Solubility pH 4.0.
The mark [14] stands for this setting: glycylglycine buffer, pH 5, pH 5.0, read-out: Solubility pH 5.0.

One may read the EC50 as the midpoint of the concentration-response curve. The solubility is the concentration that dissolves in the medium under given conditions.

Take `CC[C@H](C)[C@H](NC(=O)[C@@H]1CCCN1C(=O)CNC(=O)[C@H](Cc1ccccc1)NC(=O)[C@H](CC(N)=O)NC(=O)[C@H](CC(N)=O)NC(=O)[C@H](CO)NC(=O)[C@H](CO)NC(=O)[C@H](CCCNC(=N)N)NC(=O)[C@H](Cc1c[nH]cn1)NC(=O)[C@H](CC(C)C)NC(=O)[C@H](Cc1ccccc1)NC(=O)[C@H](CCC(=O)O)NC(=O)[C@H](C)NC(=O)[C@H](CC(C)C)NC(=O)[C@H](CCCNC(=N)N)NC(=O)[C@H](CCC(N)=O)NC(=O)[C@@H](NC(=O)[C@H](C)NC(=O)[C@@H]1CSSC[C@H](NC(=O)[C@H](CCC(=O)O)NC(=O)CC[C@H](NC(=O)CCCCCCCCCCCCCCCCCCC(=O)O)C(=O)O)C(=O)N[C@@H](CC(N)=O)C(=O)N[C@@H]([C@@H](C)O)C(=O)N[C@@H](C)C(=O)N[C@@H]([C@@H](C)O)C(=O)N1)[C@@H](C)O)C(=O)N[C@@H](CC(C)C)C(=O)N1CCC[C@H]1C(=O)N1CCC[C@H]1C(=O)N[C@H](C(=O)N[C@@H](CC(N)=O)C(=O)N[C@H](C(=O)NCC(=O)N[C@@H](CO)C(=O)N[C@@H](CC(N)=O)C(=O)N[C@H](C(=O)N1CCC[C@H]1C(N)=O)[C@@H](C)O)C(C)C)[C@@H](C)O` [Example 10, N-alpha-[(S)-4-Carboxy-4-(19-carboxynonadecanoylamino)butyryl]-[Glu1,Glu14,His17,Arg18,Pro37]-pramlintide] ({C20 diacid-γGlu}-ECNTATCATQRLAEFLHRSSNNFGPILPPTNVGSNTP-NH2; disulfide 2-7): the 50% effective concentration (EC50) in series [1] amounted to 0.0864 nM; in series [2], 0.374 nM; in series [4] it was 0.0823 nM. Besides, the solubility at 18 h in series [3] (setting [5]), in series [3] (setting [6]), in series [3] (setting [7]), in series [3] (setting [8]), in series [3] (setting [9]) and in series [3] (setting [10]) was greater than 200 µM throughout. Also, the solubility at 18 h in series [3] (setting [11]), in series [3] (setting [12]), in series [3] (setting [13]) and in series [3] (setting [14]) was greater than 200 µM in each case.

On to `CC[C@H](C)[C@H](NC(=O)[C@@H]1CCCN1C(=O)CNC(=O)[C@H](Cc1ccccc1)NC(=O)[C@H](CC(N)=O)NC(=O)[C@H](CC(N)=O)NC(=O)[C@H](CO)NC(=O)[C@H](CO)NC(=O)[C@H](Cc1c[nH]cn1)NC(=O)[C@H](Cc1c[nH]cn1)NC(=O)[C@H](CC(C)C)NC(=O)[C@H](Cc1ccccc1)NC(=O)[C@H](CCC(=O)O)NC(=O)[C@H](C)NC(=O)[C@H](CC(C)C)NC(=O)[C@H](CCCNC(=N)N)NC(=O)[C@H](CCC(N)=O)NC(=O)[C@@H](NC(=O)[C@H](C)NC(=O)[C@@H]1CSSC[C@H](NC(=O)[C@H](CCCCN)NC(=O)[C@H](CCC(=O)O)NC(=O)CC[C@H](NC(=O)CCCCCCCCCCCCCCCCC(=O)O)C(=O)O)C(=O)N[C@@H](CC(N)=O)C(=O)N[C@@H]([C@@H](C)O)C(=O)N[C@@H](C)C(=O)N[C@@H]([C@@H](C)O)C(=O)N1)[C@@H](C)O)C(=O)N[C@@H](CC(C)C)C(=O)N1CCC[C@H]1C(=O)N1CCC[C@H]1C(=O)N[C@H](C(=O)N[C@@H](CC(N)=O)C(=O)N[C@H](C(=O)NCC(=O)N[C@@H](CO)C(=O)N[C@@H](CC(N)=O)C(=O)N[C@H](C(=O)N[C@@H](Cc1ccc(O)cc1)C(N)=O)[C@@H](C)O)C(C)C)[C@@H](C)O` [Example 42, N-alpha-[(S)-4-Carboxy-4-(17-carboxyheptadecanoylamino)butyryl]-Glu-[Glu14,His17]-pramlintide] ({C18 diacid-γGlu}-EKCNTATCATQRLAEFLHHSSNNFGPILPPTNVGSNTY-NH2; disulfide 3-8 (inferred)), for which the figures for the EC50 in series [1], in series [2] and in series [4] were 0.274 nM, 0.135 nM and 0.0739 nM, respectively. Further, the solubility at 18 h in series [3] (setting [5]), in series [3] (setting [6]), in series [3] (setting [7]), in series [3] (setting [8]), in series [3] (setting [9]) and in series [3] (setting [10]) was greater than 200 µM in each case. Moreover, the solubility at 18 h in series [3] (setting [11]), in series [3] (setting [12]), in series [3] (setting [13]) and in series [3] (setting [14]) was greater than 200 µM each time.

Take `CC[C@H](C)[C@H](NC(=O)[C@@H]1CCCN1C(=O)CNC(=O)[C@H](Cc1ccccc1)NC(=O)[C@H](CC(N)=O)NC(=O)[C@H](CC(N)=O)NC(=O)[C@H](CO)NC(=O)[C@H](CO)NC(=O)[C@H](Cc1c[nH]cn1)NC(=O)[C@H](Cc1c[nH]cn1)NC(=O)[C@H](CC(C)C)NC(=O)[C@H](Cc1ccccc1)NC(=O)[C@H](CCC(=O)O)NC(=O)[C@H](C)NC(=O)[C@H](CC(C)C)NC(=O)[C@H](CCCNC(=N)N)NC(=O)[C@H](CCC(N)=O)NC(=O)[C@@H](NC(=O)[C@H](C)NC(=O)[C@@H]1CSSC[C@H](NC(=O)[C@H](CCCCN)NC(=O)[C@H](CCC(=O)O)NC(=O)CC[C@H](NC(=O)CCCCCCCCCCCCCCCCCCC(=O)O)C(=O)O)C(=O)N[C@@H](CC(N)=O)C(=O)N[C@@H]([C@@H](C)O)C(=O)N[C@@H](C)C(=O)N[C@@H]([C@@H](C)O)C(=O)N1)[C@@H](C)O)C(=O)N[C@@H](CC(C)C)C(=O)N1CCC[C@H]1C(=O)N1CCC[C@H]1C(=O)N[C@H](C(=O)N[C@@H](CC(N)=O)C(=O)N[C@H](C(=O)NCC(=O)N[C@@H](CO)C(=O)N[C@@H](Cc1c[nH]cn1)C(=O)N[C@H](C(=O)N[C@@H](Cc1ccc(O)cc1)C(N)=O)[C@@H](C)O)C(C)C)[C@@H](C)O` [Example 56, N-alpha-[(S)-4-Carboxy-4-(19-carboxynonadecanoylamino)butyryl]-Glu-[Glu14,His17,His35]-pramlintide] ({C20 diacid-γGlu}-EKCNTATCATQRLAEFLHHSSNNFGPILPPTNVGSHTY-NH2; disulfide 3-8 (inferred)): the values for the EC50 in series [1], in series [2] and in series [4] were 0.352 nM, 0.643 nM and 0.299 nM, respectively. Further, the solubility at 18 h in series [3] (setting [5]), in series [3] (setting [6]), in series [3] (setting [7]), in series [3] (setting [8]), in series [3] (setting [9]) and in series [3] (setting [10]) was greater than 200 µM each time. Besides, the solubility at 18 h in series [3] (setting [11]), in series [3] (setting [12]), in series [3] (setting [13]) and in series [3] (setting [14]) was greater than 200 µM each time.
